For four compounds, EC50, Emax and inhibition results are on record in patent publication US10188634B2, “3-(3H-imidazo[4,5-C]pyridin-2-yl)-1 H-pyrazolo[4,3-B]pyridines and therapeutic uses thereof” (Samumed, LLC, priority 2015, dated 2019).

For assay [1], the system named is LL29 cells (primary human fibroblasts derived from IPF patients) treated with TGF-β1, α-smooth muscle actin. Briefly: Inhibition of the fibrotic process: αSMA staining in TGF-β1 treated primary human fibroblasts from IPF patients (LL29 cells). The class given is cell-based. The settings on record: Fibroblast, 96 h; for EC50: LL29 cells treated with TGF-β1 (20 ng/mL), 4 days.

The subject of assay [2] is primary human mesenchymal stem cells (hMSCs). In words: Induction of chondrogenesis in primary human mesenchymal stem cells (hMSCs), nodule imaging with Rhodamine B / Nile Red. The class given is cell-based. The settings on record: for Emax: hMSCs chondrogenesis, TGF-β3 (10 ng/mL) as positive control, read-out: Max. Activity as % TGF-β3 activity; for EC50: hMSCs, concentration required to induce 50% levels of chondrogenesis vs TGF-β3 positive control, read-out: Conc (nM) of 50% TGF-β3 activity. The gist of the method:
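Passage 3-6 hMSCs cultured 6 days at 37° C in incomplete chondrogenic induction medium with compound (2700-10 nM, 96-well; 5000-2.2 nM, 384-well; 0.03% DMSO), TGF-β3 10 ng/mL as positive control. Fixed nodules stained with Rhodamine B/Nile Red, imaged at 531/625 nm; nodule area normalized to DMSO wells for EC50, maximum activity and dose at maximum.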

Bounds are passed on as bounds.

Consider `Fc1cccc(-c2cncc3[nH]c(-c4n[nH]c5ccc(C6=CCNCC6)nc45)nc23)c1` [Compound 478, 3-(7-(3-Fluorophenyl)-3H-imidazo[4,5-c]pyridin-2-yl)-5-(1,2,3,6-tetrahydropyridin-4-yl)-1H-pyrazolo[4,3-b]pyridine], for which the EC50 in assay [1] came out at 4.99 µM; in assay [2], 7 nM. In assay [2], the Emax is 53%.
`COc1cccc(-c2cncc3[nH]c(-c4n[nH]c5ccc(-c6cccnc6)nc45)nc23)c1` [Compound 949, 3-(7-(3-Methoxylphenyl)-3H-imidazo[4,5-c]pyridin-2-yl)-5-(pyridin-3-yl)-1H-pyrazolo[4,3-b]pyridine] showed an EC50 in assay [1] of 6.53 µM. In addition, in assay [2], the Emax turned out to be 59% and the EC50 stood at 30 nM.
`COc1cccc(-c2cncc3[nH]c(-c4n[nH]c5ccc(-c6cncc(NC(=O)C7CCCCC7)c6)nc45)nc23)c1` [Compound 967, N-(5-(3-(7-(3-Methoxylphenyl)-3H-imidazo[4,5-c]pyridin-2-yl)-1H-pyrazolo[4,3-b]pyridin-5-yl)pyridin-3-yl)cyclohexanecarboxamide]: the EC50 in assay [1] was more than 10 µM. The inhibition (usually how much of the control response was suppressed) at 10 µM in assay [1] (LL29 cells treated with TGF-β1, 4 days, at 10 μM, read-out: percent inhibition in brackets (given for EC50 >10 μM)) was determined as 0%. In assay [2], the Emax came out at 80% and the EC50 worked out at 10 nM.
In assay [1], `Cc1ccc(-c2cncc3[nH]c(-c4n[nH]c5ccc(-c6cncc(NC(=O)C(C)C)c6)nc45)nc23)s1` [Compound 373, N-(5-(3-(7-(5-Methylthiophen-2-yl)-3H-imidazo[4,5-c]pyridin-2-yl)-1H-pyrazolo[4,3-b]pyridin-5-yl)pyridin-3-yl)isobutyramide] came in with an EC50 of 2.63 µM. The Emax in assay [2] stood at 42%.
